Measured values taken from PMC7501296, “Rapid and direct control of target protein levels with VHL-recruiting dTAG molecules” (Nature Communications, 2020).
Where “and” joins values, the source holds several entries; their conditions need not be identical. Identical values can stand only once.

Key:
Format in all cases: cell-based
FKBP12^WT-Nluc = molecular target: T1, FKBP12^WT-Nluc (Homo sapiens, UniProt P62942); assay: FKBP12WT-Nluc dual luciferase assay (293FT); details: 293FT, 24 h
T1 construct: expressed in transfected cells; host or cells: 293FT
T1 sequence (P62942 2-108 limits assumed): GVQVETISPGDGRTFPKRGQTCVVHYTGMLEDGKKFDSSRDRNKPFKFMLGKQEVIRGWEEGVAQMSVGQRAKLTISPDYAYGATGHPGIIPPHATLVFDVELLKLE
In short: (§1)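 293FT cells expressing FKBP12^WT-Nluc or FKBP12^F36V-Nluc with Fluc were treated with compound for 24 h at 37 °C. Fluc, then Nluc, luminescence was read with Dual-Glo reagents. Values are DMSO-normalised Nluc/Fluc ratios.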

FKBP12^F36V-Nluc = molecular target: T2, FKBP12^F36V-Nluc (Homo sapiens, UniProt P62942, F37V); assay: FKBP12F36V-Nluc dual luciferase assay (293FT); details: 293FT, 24 h
T2 construct: expressed in transfected cells; host or cells: 293FT
T2 sequence (P62942 2-108 F37V limits assumed): as the sequence (P62942 2-108 limits assumed) above, with F36V counted along it
In short: as §1

[1] = tested on: PATU-8902 LACZ-FKBP12^F36V clone; assay: Antiproliferation, PATU-8902 LACZ-FKBP12F36V clone, 3D-spheroid (CellTiter-Glo); details: 120 h
In short: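 Viability of cells grown as ultra-low adherent 3D-spheroids was determined with the CellTiter-Glo reagent (Promega). Luminescence was read on either an Envision 2104 plate reader (PerkinElmer) or a Fluostar Omega Reader (BMG Labtech). The resulting data were analyzed with GraphPad PRISM v8.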

[2] = tested on: PATU-8902 FKBP12^F36V-KRAS^G12V; KRAS^-/- clone; assay: Antiproliferation, PATU-8902 FKBP12F36V-KRASG12V; KRAS-/- clone, 3D-spheroid (CellTiter-Glo); details: FKBP12F36V-KRASG12V, KRAS-/-, 3D-spheroid, 120 h
In short: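 Viability of cells grown as ultra-low adherent 3D-spheroids was determined with CellTiter-Glo (Promega). Luminescence readings were taken on an Envision 2104 plate reader (PerkinElmer) and a Fluostar Omega Reader (BMG Labtech), and the resulting data were processed in GraphPad PRISM v8 to assess effects on cell proliferation.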

[3] = tested on: PATU-8902 LACZ-FKBP12^F36V clone; assay: Antiproliferation, PATU-8902 LACZ-FKBP12F36V clone, 2D-monolayer (CellTiter-Glo)
In short: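 Viability of cells grown as 2D-adherent monolayers was determined with the CellTiter-Glo luminescent reagent (Promega). Luminescence signals were read on either an Envision 2104 plate reader (PerkinElmer) or a Fluostar Omega Reader (BMG Labtech), and the resulting data were processed and analyzed in GraphPad PRISM v8 software.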

[4] = tested on: PATU-8902 FKBP12^F36V-KRAS^G12V; KRAS^-/- clone; assay: Antiproliferation, PATU-8902 FKBP12F36V-KRASG12V; KRAS-/- clone, 2D-monolayer (CellTiter-Glo)
[5] = log10[compound] (M) -5.69897, single replicates
[6] = log10[compound] (M) -6.19897, single replicates
[7] = log10[compound] (M) -6.69897, single replicates
[8] = log10[compound] (M) -7.19897, single replicates
[9] = log10[compound] (M) -7.69897, single replicates
[10] = log10[compound] (M) -8.19897, single replicates
[11] = log10[compound] (M) -8.69897, single replicates
[12] = log10[compound] (M) -9.19897, single replicates
[13] = log10[compound] (M) -9.69897, single replicates
[14] = log10[compound] (M) -10.199, single replicates
[15] = log10[compound] (M) -5.69897, replicate values
[16] = log10[compound] (M) -6.19897, replicate values
[17] = log10[compound] (M) -6.69897, replicate values
[18] = log10[compound] (M) -7.19897, replicate values
[19] = log10[compound] (M) -7.69897, replicate values
[20] = log10[compound] (M) -8.19897, replicate values
[21] = log10[compound] (M) -8.69897, replicate values
[22] = log10[compound] (M) -9.19897, replicate values
[23] = log10[compound] (M) -9.69897, replicate values
[24] = log10[compound] (M) -10.199, replicate values

`CCC(C(=O)N1CCCCC1C(=O)OC(CCc1ccc(OC)c(OC)c1)c1ccccc1OCC(=O)NCCCCCCC(=O)NC(C(=O)N1CC(O)CC1C(=O)NC(C)c1ccc(-c2scnc2C)cc1)C(C)(C)C)c1cc(OC)c(OC)c(OC)c1` (stereo not drawn) [dTAG^V-1-NEG] was tested, and the “Effect on FKBP12WT-Nluc (in words)” value (FKBP12^WT-Nluc) was “no activity”, the “Degradation of FKBP12F36V-Nluc (in words)” value (FKBP12^F36V-Nluc) was “no activity” and the DMSO-normalized antiproliferation [1, 5] was 68.4913 and 65.8862 and 68.8321 and 78.0465. The DMSO-normalized antiproliferation [1, 6] was 88.8571 and 103.865 and 101.246 and 98.2508, the DMSO-normalized antiproliferation [1, 7] was 91.2022 and 101.677 and 109.864 and 107.932 and the DMSO-normalized antiproliferation [1, 8] was 113.68 and 101.811 and 126.495 and 101.479. The DMSO-normalized antiproliferation [1, 9] was 124.531 and 121.356 and 110.765 and 105.317, the DMSO-normalized antiproliferation [1, 10] was 119.921 and 92.6191 and 101.851 and 115.03 and the DMSO-normalized antiproliferation [1, 11] was 108.505 and 98.1611 and 108.837 and 115.846. The DMSO-normalized antiproliferation [1, 12] was 113.362 and 108.537 and 123.253 and 101.067, the DMSO-normalized antiproliferation [1, 13] was 112.187 and 102.493 and 128.974 and 86.9201 and the DMSO-normalized antiproliferation [1, 14] was 94.0987 and 98.1746 and 115.316 and 84.3777. The DMSO-normalized antiproliferation [2, 5] was 37.3931 and 26.551 and 27.3028 and 28.0546, the DMSO-normalized antiproliferation [2, 6] was 78.1886 and 92.1435 and 64.5511 and 70.1475 and the DMSO-normalized antiproliferation [2, 7] was 103.503 and 85.567 and 103.938 and 98.1965. The DMSO-normalized antiproliferation [2, 8] was 124.063 and 123.712 and 110.481 and 131.998, the DMSO-normalized antiproliferation [2, 9] was 94.7496 and 116.061 and 121.718 and 128.178 and the DMSO-normalized antiproliferation [2, 10] was 119.268 and 103.119 and 108.576 and 125.767. The DMSO-normalized antiproliferation [2, 11] was 120.883 and 119.814 and 120.521 and 105.703, the DMSO-normalized antiproliferation [2, 12] was 102.117 and 92.5221 and 111.366 and 98.8369 and the DMSO-normalized antiproliferation [2, 13] was 88.1174 and 98.3023 and 99.984 and 124.954. For the same molecule, the DMSO-normalized antiproliferation [2, 14] was 99.0429 and 90.8682 and 97.0717 and 101.855, the DMSO-normalized antiproliferation [3, 15] was 11.5867 and 14.0973 and 18.4019 and 18.5068 and the DMSO-normalized antiproliferation [3, 16] was 63.5123 and 73.6517 and 63.5598 and 74.3207. For the same molecule, the DMSO-normalized antiproliferation [3, 17] was 93.1863 and 113.355 and 96.7633 and 104.117, the DMSO-normalized antiproliferation [3, 18] was 100.081 and 106.556 and 105.951 and 130.27 and the DMSO-normalized antiproliferation [3, 19] was 138.495 and 100.848 and 147.738 and 83.6486. For the same molecule, the DMSO-normalized antiproliferation [3, 20] was 143.617 and 87.8737 and 136.886 and 159.708, the DMSO-normalized antiproliferation [3, 21] was 153.483 and 88.4456 and 121.366 and 127.155 and the DMSO-normalized antiproliferation [3, 22] was 128.036 and 98.5375 and 110.326 and 91.7687. The DMSO-normalized antiproliferation [3, 23] was 126.211 and 97.7702 and 97.5063 and 90.8491, the DMSO-normalized antiproliferation [3, 24] was 118.887 and 87.4707 and 131.584 and 99.1889 and the DMSO-normalized antiproliferation [4, 15] was 4.32 and 6.388 and 6.155 and 5.991. The DMSO-normalized antiproliferation [4, 16] was 32.3489 and 36.7324 and 47.9927 and 46.6785, the DMSO-normalized antiproliferation [4, 17] was 83.4764 and 91.9957 and 98.0856 and 85.7695 and the DMSO-normalized antiproliferation [4, 18] was 140.095 and 133.654 and 96.5457 and 87.6299. The DMSO-normalized antiproliferation [4, 19] was 124.703 and 107.666 and 124.781 and 104.227, the DMSO-normalized antiproliferation [4, 20] was 100.524 and 126.087 and 110.25 and 83.3074 and the DMSO-normalized antiproliferation [4, 21] was 126.672 and 110.141 and 94.4012 and 101.209. For the same molecule, the DMSO-normalized antiproliferation [4, 22] was 119.782 and 117.251 and 170.771 and 120.652, the DMSO-normalized antiproliferation [4, 23] was 93.2126 and 100.867 and 84.0534 and 89.6654 and the DMSO-normalized antiproliferation [4, 24] was 113.321 and 95.7713 and 117.376 and 100.982.
